What all share (type): cell-based
In assay [1] the test system is T-Rex 293 cells lacking increased expression of estrogen receptor alpha protein. The assay can be described thus: Cellular growth inhibition assay, T-Rex 293 cells, (−) doxycycline. As to conditions: T-REx-293, 72 h, T-Rex 293 cells without doxycycline (lacking increased ERα expression), 72 hours, CellTiter-Glo, read-out: (−) Dox GI50. The gist of the method:
(§1)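 Growth of a doxycycline-inducible ERα T-Rex 293 clone, induced or not with 3 ng/mL doxycycline, was followed for 72 h with test compound in hormone-depleted medium. CellTiter-Glo luminescence gave GI50.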
(Cellular ATP, detected with luciferase, serves as a proxy for viable cell number.)

Assay [2] deals with MCF7 cells (ATCC #HTB-22). Kind of assay: Cellular growth inhibition assay, MCF7 cells purchased from ATCC. As to conditions: Homo sapiens, MCF7, 144 h, Table 8-A; MCF7 cells purchased from ATCC; six days; CellTiter-Glo; read-out: GI50. The gist of the method: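 GI50 values come from a four-parameter fit of CellTiter-Glo 2.0 luminescence after six days of compound exposure at 37° C. Seeding density depended on the source: 225 cells/well for ECACC MCF7, 1,500 for ATCC. Medium was RPMI 1640 with 10% FBS and 0.2 U/ml insulin.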

Assay [3] deals with T-Rex 293 cells having increased expression of estrogen receptor alpha protein. Kind of assay: Cellular growth inhibition assay, T-Rex 293 cells, (+) doxycycline. As to conditions: T-REx-293, 72 h, T-Rex 293 cells with doxycycline (increased ERα expression), 72 hours, CellTiter-Glo, read-out: (+) Dox GI50. The method in brief:
as §1

Where two headings read alike, the source gives them in different places.

The term GI50 denotes the concentration at which growth is held to half of that of the control. Take `COc1cc(N2CCN(CC3(O)CCN(c4cc(F)c(C5=N[C@@H](C)c6nnc(C)n6-c6sc(C)c(C)c65)cc4F)CC3)CC2)ccc1[C@@H]1c2ccc(O)cc2CC[C@@H]1c1ccccc1` [III-339, 1-(2,5-difluoro-4-((S)-2,3,6,9-tetramethyl-6H-thieno[3,2-f][1,2,4]triazolo[4,3-a][1,4]diazepin-4-yl)phenyl)-4-((4-(4-((1S,2S)-6-hydroxy-2-phenyl-1,2,3,4-tetrahydronaphthalen-1-yl)-3-methoxyphenyl)piperazin-1-yl)methyl)piperidin-4-ol]: the GI50 in assay [1] (Table 7-A) is over 2500 nM; in assay [2], under 50 nM; in assay [3] (Table 7-A), under 50 nM.

Take `COc1cc(N2CCN(CC3(O)CCN(c4cc(F)c(C5=N[C@@H](C)c6nnc(C)n6-c6sc(C)c(C)c65)cc4F)CC3)CC2)ccc1[C@H]1c2ccc(O)cc2CC[C@H]1c1ccccc1` [III-340, 1-(2,5-difluoro-4-((S)-2,3,6,9-tetramethyl-6H-thieno[3,2-f][1,2,4]triazolo[4,3-a][1,4]diazepin-4-yl)phenyl)-4-((4-(4-((1R,2R)-6-hydroxy-2-phenyl-1,2,3,4-tetrahydronaphthalen-1-yl)-3-methoxyphenyl)piperazin-1-yl)methyl)piperidin-4-ol]: the GI50 in assay [1] (Table 7-A), in assay [2] and in assay [3] (Table 7-A) was 50 to 500 nM throughout.

With `COc1cc(N2CCN(CC3(O)CCN(c4cc(F)c(C5=N[C@@H](C)c6nnc(C)n6-c6sc(C)c(C)c65)cc4F)CC3)CC2)c(F)cc1[C@@H]1c2ccc(O)cc2CC[C@@H]1c1ccccc1` [III-341, 1-(2,5-difluoro-4-((6S)-2,3,6,9-tetramethyl-6H-thieno[3,2-f][1,2,4]triazolo[4,3-a][1,4]diazepin-4-yl)phenyl)-4-((4-(2-fluoro-4-((1S,2S)-6-hydroxy-2-phenyl-1,2,3,4-tetrahydronaphthalen-1-yl)-5-methoxyphenyl)piperazin-1-yl)methyl)piperidin-4-ol], the GI50 was over 2500 nM in assay [1] (Table 7-A), under 50 nM in assay [2] and under 50 nM in assay [3] (Table 7-A).

Take `COc1cc(N2CCN(CC3(O)CCN(c4cc(F)c(C5=N[C@@H](C)c6nnc(C)n6-c6sc(C)c(C)c65)cc4F)CC3)CC2)c(F)cc1[C@H]1c2ccc(O)cc2CC[C@H]1c1ccccc1` [III-342, 1-(2,5-difluoro-4-((6S)-2,3,6,9-tetramethyl-6H-thieno[3,2-f][1,2,4]triazolo[4,3-a][1,4]diazepin-4-yl)phenyl)-4-((4-(2-fluoro-4-((1R,2R)-6-hydroxy-2-phenyl-1,2,3,4-tetrahydronaphthalen-1-yl)-5-methoxyphenyl)piperazin-1-yl)methyl)piperidin-4-ol]: the GI50 in assay [1] (Table 7-A), in assay [2] and in assay [3] (Table 7-A) was 50 to 500 nM throughout.

As to `Cc1sc2c(c1C)C(c1ccc(N3C[C@@H]4C(NCCOc5ccc([C@H]6c7ccc(O)cc7CC[C@H]6c6ccccc6)cc5)[C@H]4C3)cc1)=NC(Cc1ncco1)c1nnc(C)n1-2` (stereo partly drawn) [III-347], the GI50 in assay [1] (Table 7-B), in assay [2] and in assay [3] (Table 7-B) was under 50 nM each time.

As for `Cc1sc2c(c1C)C(c1ccc(N3CCN(CC4CCN(c5ccc(C6=C(c7ccc(Cl)cc7Cl)CCCc7cc(C(=O)O)ccc76)cc5)CC4)CC3)cc1)=N[C@@H](C)c1nnc(C)n1-2` [IV-1], the GI50 in assay [1] (Table 7-A) is over 2500 nM; in assay [2], 50 to 500 nM; in assay [3] (Table 7-A), under 50 nM.

For the compound `Cc1sc2c(c1C)C(c1ccc(N3CCN(CCN4CC[C@H](Oc5ccc(C6=C(c7ccc(Cl)cc7Cl)CCCc7cc(C(=O)O)ccc76)cc5)C4)CC3)cc1)=N[C@@H](C)c1nnc(C)n1-2` [IV-2], the GI50 in assay [1] (Table 7-A) was 500 to 2500 nM; in assay [2] it was 50 to 500 nM; in assay [3] (Table 7-A) it was 50 to 500 nM.

Turning to `Cc1sc2c(c1C)C(c1ccc(N3CCN(CCN4CC(Oc5ccc(C6=C(c7ccc(Cl)cc7Cl)CCCc7cc(C(=O)O)ccc76)cc5)C4)CC3)cc1)=N[C@@H](C)c1nnc(C)n1-2` [IV-3], the GI50 is 500 to 2500 nM in assay [1] (Table 7-A), 50 to 500 nM in assay [2] and under 50 nM in assay [3] (Table 7-A).

`Cc1sc2c(c1C)C(c1ccc(N3CCN(CC4CCN(c5ccc(C6=C(c7ccc(Cl)cc7Cl)CCCc7cc(C(=O)O)ccc76)cc5)CC4)CC3)cc1)=N[C@@H](Cc1ncco1)c1nnc(C)n1-2` [IV-4]: the GI50 in assay [1] (Table 7-A) was 500 to 2500 nM; in assay [2], under 50 nM; in assay [3] (Table 7-A), 50 to 500 nM.

For `Cc1sc2c(c1C)C(c1ccc(N3CCC(O)(CN4CCC(c5ccc(C6=C(c7ccc(Cl)cc7Cl)CCCc7cc(C(=O)O)ccc76)cc5)CC4)CC3)cc1)=N[C@@H](C)c1nnc(C)n1-2` [IV-5], the figures for the GI50 in assay [1] (Table 7-A), in assay [2] and in assay [3] (Table 7-A) were over 2500 nM, 50 to 500 nM and under 50 nM, respectively.

`Cc1sc2c(c1C)C(c1ccc(N3CCC(CN4CCC(c5ccc(C6=C(c7ccc(Cl)cc7Cl)CCCc7cc(C(=O)O)ccc76)cc5)CC4)CC3)cc1)=N[C@@H](C)c1nnc(C)n1-2` [IV-6]: the GI50 in assay [1] (Table 7-A) lay in the range of 500 to 2500 nM; in assay [2] it was 50 to 500 nM; in assay [3] (Table 7-A), 50 to 500 nM.

Take `Cc1sc2c(c1C)C(c1ccc(N3CCC(C(=O)N4CCN(c5ccc(C6=C(c7ccc(Cl)cc7Cl)CCCc7cc(C(=O)O)ccc76)cc5)CC4)CC3)cc1)=N[C@@H](C)c1nnc(C)n1-2` [IV-7]: the values for the GI50 in assay [1] (Table 7-A), in assay [2] and in assay [3] (Table 7-A) were 500 to 2500 nM, 50 to 500 nM and 50 to 500 nM, respectively.

With `Cc1sc2c(c1C)C(c1ccc(N3CC(CN4CCN(CC5CN(c6ccc(C7=C(c8ccc(Cl)cc8Cl)CCCc8cc(C(=O)O)ccc87)cc6)C5)CC4)C3)cc1)=N[C@@H](C)c1nnc(C)n1-2` [IV-8], the GI50 in assay [1] (Table 7-A) is 500 to 2500 nM; in assay [2] it was under 50 nM; in assay [3] (Table 7-A), under 50 nM.

For the compound `Cc1sc2c(c1C)C(c1ccc(N3CCC(O)(CN4CCN(c5ccc(C6=C(c7ccc(Cl)cc7Cl)CCCc7cc(C(=O)O)ccc76)cc5)CC4)CC3)cc1)=N[C@@H](C)c1nnc(C)n1-2` [IV-9], the GI50 in assay [1] (Table 7-A) was 500 to 2500 nM; in assay [2], under 50 nM; in assay [3] (Table 7-A), under 50 nM.

Regarding `Cc1sc2c(c1C)C(c1ccc(N3CC(CN4CCN(c5ccc(C6=C(c7ccc(Cl)cc7Cl)CCCc7cc(C(=O)O)ccc76)cc5)CC4)C3)cc1)=N[C@@H](C)c1nnc(C)n1-2` [IV-10], the values for the GI50 in assay [1] (Table 7-A), in assay [2] and in assay [3] (Table 7-A) were 500 to 2500 nM, 50 to 500 nM and 50 to 500 nM, respectively.

On to `Cc1sc2c(c1C)C(c1ccc(N3CCC(CN4CCN(c5ccc(C6=C(c7ccc(Cl)cc7Cl)CCCc7cc(C(=O)O)ccc76)cc5)CC4)CC3)cc1)=N[C@@H](C)c1nnc(C)n1-2` [IV-11], for which the values for the GI50 in assay [1] (Table 7-A), in assay [2] and in assay [3] (Table 7-A) were 500 to 2500 nM, 50 to 500 nM and under 50 nM, respectively.

Consider `Cc1sc2c(c1C)C(c1ccc(CC(=O)N3CCC4(CCN(c5ccc(C6=C(c7ccc(Cl)cc7Cl)CCCc7cc(C(=O)O)ccc76)cc5)CC4)C3)cc1)=N[C@@H](C)c1nnc(C)n1-2` [IV-12], for which the GI50 lay within 500 to 2500 nM in assay [1] (Table 7-A), 50 to 500 nM in assay [2] and 50 to 500 nM in assay [3] (Table 7-A).

Regarding `Cc1sc2c(c1C)C(c1ccc(N3CC(CN4CCN(c5ccc(C6=C(c7ccc(Cl)cc7Cl)CCCc7cc(C(=O)O)ccc76)cc5)CC4)C3)cc1)=N[C@@H](Cc1ncco1)c1nnc(C)n1-2` [IV-13], the GI50 in assay [1] (Table 7-A) was 50 to 500 nM; in assay [2], under 50 nM; in assay [3] (Table 7-A), under 50 nM.

On to `Cc1sc2c(c1C)C(c1ccc(N3CCC(CN4CCN(c5ccc(C6=C(c7ccc(Cl)cc7Cl)CCCc7cc(C(=O)O)ccc76)cc5)CC4)CC3)cc1)=N[C@@H](Cc1ncco1)c1nnc(C)n1-2` [IV-14], for which the GI50 is 500 to 2500 nM in assay [1] (Table 7-A), under 50 nM in assay [2] and under 50 nM in assay [3] (Table 7-A).

In the case of `Cc1sc2c(c1C)C(c1ccc(N3CCC(O)(CN4CCN(c5ccc(C6=C(c7ccc(Cl)cc7Cl)CCCc7cc(C(=O)O)ccc76)cc5)CC4)CC3)cc1)=N[C@H](C)c1nnc(C)n1-2` [IV-15], the GI50 was over 2500 nM in assay [1] (Table 7-A), 500 to 2500 nM in assay [2] and over 2500 nM in assay [3] (Table 7-A).

On to `Cc1sc2c(c1C)C(c1ccc(N3CCC(O)(CN4CCN(c5ccc(C6=C(c7ccccc7)CCCc7cc(C(=O)O)ccc76)cc5)CC4)CC3)cc1)=N[C@@H](C)c1nnc(C)n1-2` [IV-16], for which the figures for the GI50 in assay [1] (Table 7-A), in assay [2] and in assay [3] (Table 7-A) were 500 to 2500 nM, under 50 nM and under 50 nM, respectively.

For the compound `Cc1sc2c(c1C)C(c1ccc(N3CCC(O)(CN4CCN(c5ccc(C6=C(c7ccccc7)CCCc7cc(O)ccc76)cc5)CC4)CC3)cc1)=N[C@@H](C)c1nnc(C)n1-2` [IV-17], the GI50 in assay [1] (Table 7-A) was 500 to 2500 nM; in assay [2] it was under 50 nM; in assay [3] (Table 7-A), under 50 nM.

With `Cc1sc2c(c1C)C(c1ccc(N3CCC(O)(CN4CCN(c5ccc(C6=C(c7ccccc7Cl)CCCc7cc(C(=O)O)ccc76)cc5)CC4)CC3)cc1)=N[C@@H](C)c1nnc(C)n1-2` [IV-18], the results for the GI50 in assay [1] (Table 7-A), in assay [2] and in assay [3] (Table 7-A) were 500 to 2500 nM, under 50 nM and under 50 nM, respectively.

`Cc1sc2c(c1C)C(c1ccc(N3CCC(O)(CN4CCN(c5ccc(C6=C(c7ccc(Cl)cc7Cl)CCCc7cc(O)ccc76)cc5)CC4)CC3)cc1)=N[C@@H](C)c1nnc(C)n1-2` [IV-19]: the GI50 in assay [1] (Table 7-A) was 500 to 2500 nM; in assay [2] it was 50 to 500 nM; in assay [3] (Table 7-A) it was under 50 nM.
